Measured values from patent publication US20220380371A1, “MLL1 INHIBITORS AND ANTI-CANCER AGENTS” (NOVARTIS AG, priority 2019, published 2022).
Like-named read-outs stand apart in the source and are kept apart here.

Assays:
[1] = biological target: wild type MLL1 four-member complex (MLL1-4C) (Homo sapiens, UniProt Q03164); assay: MLL1 LC-MS Assay; format: biochemical
Description: The compounds of the present disclosure were serially and separately diluted 3-fold in DMSO to obtain a total of eight or twelve concentrations. Then the test compounds at each concentration (120 nL of each) were transferred by Mosquito into white Proxiplate plus 384-well microplate (PerkinElmer). Solutions (6 μL) of 60 nM wild type MLL1 four-member complex (MLL1-4C) and 5 μM SAM in the reaction buffer (20 mM Tris-HCl, pH 8.0, 0.01% Tween 20, 1 mM DTT, 10 mM MgCl2, 0.01% BSA) were added to the wells that were then incubated with the test compound for 20 min. A 6 μL solution of 20 μM of the peptide substrate H3K4me0 (histone H3[1-21]-Biotin) in the reaction buffer was added to initiate each reaction. The final components in the reaction solution include 30 nM MLL1-4C, 2.5 μM SAM, and 10 μM H3K4me0 with varying concentration of the compounds. A positive control consisted of 30 nM MLL1-4C, 2.5 μM SAM, and 10 μM substrate in the absence of the test compound, and a negative control consisted of 2.5 μM SAM, and 10 μM substrate only. Each reaction was incubated at rt for 120 min, then stopped by addition of 3 μL per of quench solution (2.5% TFA with 320 nM d4-SAH). The reaction mixture was centrifuged (Eppendorf centrifuge 5810, Rotor A-4-62) for 2 min at 2000 rpm. The SAH production from the enzymatic assays were monitored by LC-MS/MS on an API 4000 triple quadrupole mass spec with Turbolon Spray (Applied Biosystem) coupled with Prominenece UFLC (Shimazu). The level of SAH production were then normalized based on the values coming from the positive and negative controls to give percent enzyme activities. The data were then fit to a dose response equation using the program Helios (Novartis) to get the IC50 values of the test compounds.

H3K4me3 in MV4-11 cells = assay: MV4-11 H3K4me3 Cellular ELISA Assay; format: cell-based; conditions: Homo sapiens, MV4-11, 48 h
Description: MV4-11 H3K4me3 Cellular ELISA Assay
MV4-11 (ATCC® CRL-9591™) was cultured with RPMI1640 medium (Thermo Fisher Scientific, cat #11875) supplemented with 10% FBS (Thermo Fisher Scientific, cat #10099141) and 50 U/ml Penicillin-Streptomycin (Thermo Fisher Scientific, cat #10378016) in humidified incubator at 37° C., 5% CO2.
200 nL compounds dissolved in DMSO were serially diluted at 1:3 ratio for 12 points starting from 10 mM and dispensed into each wells of cell culture plates (PDL-coated ViewPlate-384 Black, FTC, PerkinElmer, #6007710). 3,750 MV4-11 cells in 40 μL culture medium were seeded into each well and treated with desired concentration for 48 hours. After treatment, wash cells with cold phosphate based buffer (PBS, pH 7.4) and aspirate the remaining PBS buffer. Crude histone lysate was extracted by 40 μL 0.5M HCl for 1 hour in 4° C. following neutralization by adding 32 μL neutralization buffer (0.5M Sodium phosphate dibasic, pH ˜12.5, 1.25 mM Dithiothreitol, Promega #V3151, Protease Inhibitor Cocktail, Sigma #8340) for each well. 5 μL and 20 μL of histone lysate was loaded to ELISA plate (384 Well Plates, PE HB, White, 6005620) for detection of total H3 and H3K4me3, respectively. Shake the plates gently in 4° C. for overnight. After histone binding, plates were washed with 80 μL PBS/T (PBS with 0.05% Tween-20) and blocked with 50 μL 3% BSA diluted in PBS/T per well for 1 hour. Incubate wells with primary antibody for 1 hour at room temperature using anti-H3K4me3 (CST #9727) and anti-total H3 (CST #9715) diluted 1:2000 in 3% BSA. Plates were then washed with PBS/T for 3 times and incubated with horseradish peroxidase (HRP) conjugated secondary antibody (CST #7074, 1:5000) for 1 hour at room temperature. The abundance of H3K4me3 and total H3 were measured by ECL substrates chemiluminescence (Pierce, #34080) on a plate reader (PerkinElmer EnVison 2104 Mutilable Reader). Percentage inhibition was calculated against DMSO control after normalization of H3K4me3 signal to H3 signal for individual samples. The data were then fit to a dose response curve using GraphPad Prism for IC50 calculation.

MV4-11 cells = assay: MV4-11 6-Day Cell Growth CTG (CellTiter-Glo) Assay; format: cell-based; conditions: Homo sapiens, MV4-11, 144 h, MV4-11 cell growth CellTiter-Glo, 6 days
Description: MV4-11 6-Day Cell Growth CTG (CellTiter-Glo) Assay
Acute myeloid leukemia cell MV4-11 (ATCC® CRL-9591™) was cultured with RPMI 1640 medium (Thermo Fisher Scientific, cat #11875) supplemented with 10% FBS (Thermo Fisher Scientific, cat #10099141) in humidified incubator at 37° C., 5% CO2. To assess the effect of MLL1 inhibition on cell growth, the compound of the present invention was dissolved in DMSO and serially diluted at 1:3 for 12 points starting from 10 mM then 200 nL for the replicate of each dose per well was dispensed to Viewplate-384 Black (Perkin Elmer). Exponentially growing MV4-11 cells were seeded at the density of 300 cells per well in 40 μL to the plate, so the final compound working concentration starts from 50 μM. After 6 days, 40 μL CellTiter-Glo (Promega, cat #G7573) was added into the cell culture well and luminescence was read with Envision (Perkin Elmer) to determine the viable cells. The percentage inhibition was calculated against the samples treated with DMSO only and the data were used for dose response curve fitting in GraphPad Prism to get the IC50 of representative compound of present invention, which reflects the inhibition of MLL1 activity.

SMILES | IC50 ([1]; read-out: LCMS) [µM] | IC50 (H3K4me3 in MV4-11 cells) [µM] | IC50 (MV4-11 cells) [µM] | IC50 ([1]; read-out: MLL1 LCMS) [µM]
C#Cc1c(F)ccc(N2CC[C@](N)(C(=O)NC3CC3)C2)c1Cn1cnc2c(N)ncnc21 [Example 5] | 0.05 to 0.1 | < 1.9 | < 2 | 
Nc1ncnc2c1ncn2Cc1c(N2CC[C@](N)(C(=O)NC3CC3)C2)ccc(F)c1CC(F)(F)F [Example 6] | < 0.05 | < 1.9 | < 2 | 
Nc1ncnc2c1ncn2Cc1c(CC(F)(F)F)cc(Cl)cc1N1CC[C@](N)(C(=O)NC2CC2)C1 [Example 7] | 0.05 to 0.1 | < 1.9 | > 3 | 
Nc1ncnc2c1ncn2Cc1c(N2CC[C@](N)(C(=O)NC3CC3)C2)ccc(F)c1C1CC1 [Example 8] | 0.05 to 0.1 | < 1.9 | < 2 | 
C=Cc1c(F)ccc(N2CCC(N)(C(=O)NC3CC3)C2)c1Cn1cnc2c(N)ncnc21 (stereo not shown) [Example 9] | > 0.1 | < 1.9 | < 2 | 
CCc1c(F)ccc(N2CC[C@](N)(C(=O)NC3CC3)C2)c1Cn1cnc2c(N)ncnc21 [Example 10] | < 0.05 | < 1.9 | < 2 | 
Cc1c(C(F)(F)F)ccc(N2CC[C@](N)(C(=O)NC3CC3)C2)c1Cn1cnc2c(N)ncnc21 [Example 11] | < 0.05 | < 1.9 | < 2 | 
CCc1c(C(F)(F)F)ccc(N2CC[C@](N)(C(=O)NC3CC3)C2)c1Cn1cnc2c(N)ncnc21 [Example 12] | 0.05 to 0.1 | < 1.9 | < 2 | 
Nc1ncnc2c1ncn2Cc1c(N2CC[C@](N)(C(=O)NC3CC3)C2)ccc(F)c1Br [Example 13] | < 0.05 | < 1.9 | < 2 | 
COc1ccc(Br)c(Cn2cnc3c(N)ncnc32)c1N1CC[C@](N)(C(=O)NC2CC2)C1 [Example 21] | 0.05 to 0.1 | > 3 |  | 
C=Cc1cc(Cl)cc(N2CC[C@](N)(c3nc[nH]n3)C2)c1Cn1cnc2c(N)ncnc21 [Example 24] | < 0.05 | < 1.9 | < 2 | 
CCc1cc(Cl)cc(N2CC[C@](N)(c3nc[nH]n3)C2)c1Cn1cnc2c(N)ncnc21 [Example 25] | < 0.05 | < 1.9 | < 2 | 
Nc1ncnc2c1ncn2Cc1c(N2CC[C@](N)(c3ccccc3)C2)ccc(F)c1C(F)(F)F [Example 26] | 0.05 to 0.1 | 1.9 to 3 | 2 to 3 | 
Nc1ncnc2c1ncn2Cc1c(Br)cc(Cl)cc1N1CC[C@](N)(c2cc(C(F)(F)F)ccn2)C1 [Example 27] | < 0.05 | > 3 |  | 

Now from value to molecule:

IC50 ([1]; read-out: LCMS) [µM] | IC50 (H3K4me3 in MV4-11 cells) [µM] | IC50 (MV4-11 cells) [µM] | IC50 ([1]; read-out: MLL1 LCMS) [µM] | SMILES
0.05 to 0.1 | > 3 |  |  | CCNC(=O)CC[C@@]1(N)CCN(c2cc(Cl)cc(Br)c2Cn2cnc3c(N)ncnc32)C1 (single isomer, unassigned) [Example 36]
< 0.05 | > 3 |  |  | Nc1ncnc2c1ncn2Cc1c(Br)cc(Cl)cc1N1CC[C@](N)(CCc2nn[nH]n2)C1 (single isomer, unassigned) [Example 39]
> 0.1 | < 1.9 | 2 to 3 |  | Nc1ncnc2c1ncn2Cc1c(N2CC[C@](N)(C(=O)NC3CC3)C2)ccc(F)c1C(O)C(F)(F)F (single isomer, unassigned) [Example 82]
0.05 to 0.1 | < 1.9 | 2 to 3 |  | Nc1ncnc2c1ncn2Cc1c(Br)c(Cl)c2c(c1N1CC[C@](N)(C(=O)NC3CC3)C1)CCC2 (stereo in doubt) [Example 42]
< 0.05 | > 3 | < 2 |  | Nc1ncnc2c1ncn2Cc1c(N2CC[C@](N)(C(=O)NC3CC3)C2)ccc(Cl)c1C1CC1 (stereo in doubt) [Example 97]
< 0.05 | < 1.9 | < 2 |  | COC(=O)[C@@]1(N)CCN(c2cc(Cl)cc(C3CCC3)c2Cn2cnc3c(N)ncnc32)C1 [Example 29]
> 0.1 | > 3 |  |  | Nc1ncnc2c1ncn2Cc1c(Br)cc(Cl)cc1N1CC[C@](N)(COCC(=O)NC2CC2)C1 [Example 30]
> 0.1 | < 1.9 |  |  | CCOC(=O)CC[C@@]1(N)CCN(c2cc(Cl)cc(Br)c2Cn2cnc3c(N)ncnc32)C1 [Example 34]
0.05 to 0.1 | > 3 |  |  | CCc1cc(Cl)cc(N2CC[C@](N)(CCc3nnc(NC)s3)C2)c1Cn1cnc2c(N)ncnc21 [Example 35]
> 0.1 | > 3 |  |  | NC(=O)CCC1(N)CCN(c2cc(Cl)cc(Br)c2Cn2cnc3c(N)ncnc32)C1 (stereo not shown) [Example 37]
< 0.05 | > 3 |  |  | CCNC(=O)CC[C@@]1(N)CCN(c2cc(Cl)cc(CC)c2Cn2cnc3c(N)ncnc32)C1 [Example 38]
> 0.1 | > 3 |  |  | CCc1cc(Cl)cc(N2CC[C@](N)(CCc3nn[nH]n3)C2)c1Cn1cnc2c(N)ncnc21 [Example 40]
< 0.05 | > 3 |  |  | COC(=O)NCc1c(F)ccc(N2CC[C@](N)(C(=O)NC3CC3)C2)c1Cn1cnc2c(N)ncnc21 [Example 71]
> 0.1 | > 3 |  |  | CN(C)Cc1c(Cl)cc(Cl)c(N2CC[C@](N)(C(=O)NC3CC3)C2)c1Cn1cnc2c(N)ncnc21 [Example 74]
> 0.1 | > 3 |  |  | CN(C)Cc1cc(Cl)c(Cl)c(N2CC[C@](N)(C(=O)NC3CC3)C2)c1Cn1cnc2c(N)ncnc21 [Example 89, (R)-3-amino-1-(2-((6-amino-9H-purin-9-yl)methyl)-5,6-dichloro-3-((dimethylamino)methyl)phenyl)-N-cyclopropylpyrrolidine-3-carboxamide]
0.05 to 0.1 | > 3 |  |  | Cn1nnc([C@@]2(N)CCN(c3cc(Cl)cc(Br)c3Cn3cnc4c(N)ncnc43)C2)n1 [Example 91, (R)-9-(2-(3-amino-3-(2-methyl-2H-tetrazol-5-yl)pyrrolidin-1-yl)-6-bromo-4-chlorobenzyl)-9H-purin-6-amine]
 | > 3 |  | > 0.1 | Cc1ccc(Cl)c(Cn2cnc3c(N)ncnc32)c1N1CCC(N)(C(=O)NC2CC2)C1 (stereo not shown) [Example 157]
 | < 1.9 |  | 0.05 to 0.1 | Nc1ncnc2c1ncn2Cc1c(N2CC[C@@](N)(C(=O)NC3CC3)C2)ccc2ccccc12 [Example 166]
 | < 1.9 |  | < 0.05 | Nc1ncnc2c1ncn2Cc1c(N2CC[C@](N)(C(=O)NC3CC3)C2)ccc2cc(Br)ccc12 [Example 167]
